Test results: patent publication US8591895B2, “Combinations for the treatment of diseases involving cell proliferation” (Boehringer Ingelheim International GmbH, priority 2004, dated 2013)
Read-outs that look alike come from different tables or passages of the source.

Tests used:
[1] = tested on: NCI-H460 tumors; assay: NCI-H460 lung model combination study: tumor growth of subcutaneous xenografts in nude mice; format: in vivo, human; conditions: Docetaxel 15 mg/kg i.v.; for T/C (tumor growth delay): day 17 (end of the controls), Nr. 46 50 mg/kg i.v., once weekly (q7d)x4, alone or combined; for delay of the average time to reach 1000 mm^3 in tumor volume compared to the controls: until day 71 (end of the study), weekly treatment until day 25, Nr. 46 50 mg/kg
Source text: (§1) The triangles indicate the treatment days.

[2] = format: in vivo; conditions: day 39, Nr. 46 30 mg/kg i.v., irinotecan 12.5 mg/kg i.p., once weekly; for body weight gain: controls gained 10.3%
[3] = for body weight gain: day 26, Nr. 46 50 mg/kg i.v., gemcitabine 100 mg/kg i.p., once weekly, controls gained 6.2%
Experimental: Suboptimal doses of both compounds were used to facilitate the detection of additive, synergistic or antagonistic effects. Design of the Study • Model: Human adenocarcinoma model BxPC-3 grown as subcutaneous xenografts in nude mice. • Treatment groups (10 animals per group): • Controls Vehicle, i.v., once weekly for 4 weeks ((q7d)×4) • Exemplified compound Nr.
Tumor volumes and animal weights were recorded 3 times per week. Evaluation of therapy results was based on the absolute volumes of individual tumors.
Mice were female BomTac:NMRI-nu/nu. […] Gemcitabin infusion concentrate was diluted with 0.9% NaCl and injected intraperitoneally. The administration volume was 10 ml per kg body weight for both compounds. BxPC-3 tumours were established from cultured BxPC-3. Tumour volumes were determined three times a week using a calliper. The weight of mice was determined as an indicator of tolerability on the same days. Plasma samples were taken on the last treatment day.

[4] = tested on: BxPC-3 tumours; assay: BxPC-3 pancreas model combination study: tumour growth of subcutaneous xenografts in nude mice; format: in vivo, human; conditions: day 26 (end of the controls); Nr. 46 50 mg/kg i.v., gemcitabine 100 mg/kg i.p., once weekly (q7d)x6, alone or combined
[5] = tested on: HCT 116 tumors; assay: HCT 116 colon cancer model combination study: tumor growth of subcutaneous xenografts in nude mice; format: in vivo, human; conditions: Nr. 46 30 mg/kg i.v., irinotecan 12.5 mg/kg i.p.; for T/C (tumor growth delay): day 39 (end of the controls), once weekly (q7d)x10, alone or combined
[6] = Tolerability (body weight) in NCI-H460 tumor-bearing nude mice; conditions: 10 animals per group; Docetaxel 15 mg/kg i.v., alone or with Nr. 46 50 mg/kg i.v.
Source text: as §1

Row | Structure (SMILES) | T/C (tumor growth delay) [1] [%] | delay of the average time to reach 1000 mm^3 in tumor volume compared to the controls [1] [days] | body weight gain [2] [%] | body weight gain [3] [%] | T/C (tumour growth delay) [4] [%] | T/C (tumor growth delay) [5] [%] | delay of the average time to reach 1000 mm^3 in tumor volume ([5]; day 121 (end of the study), weekly treatment until day 64) [days] | mice euthanized due to severe loss of body weight [6] | tolerability of higher doses ([3]; mouse, in vivo) | tolerability [2]
1 | CC[C@@H]1C(=O)N(C)c2cnc(Nc3ccc(C(=O)NC4CCN(C)CC4)cc3OC)nc2N1C1CCCC1 [exemplified compound Nr. 46, 4-[[(7R)-8-cyclopentyl-7-ethyl-5,6,7,8-tetrahydro-5-methyl-6-oxo-2-pteridinyl]amino]-3-methoxy-N-(1-methyl-4-piperidinyl)-benzamide] | 65 | 4.0 | 8.6 | 8.2 | 28 | 20 | 33.7 | – | – | –
2 | CC(=O)O[C@@]12CO[C@@H]1C[C@H](O)[C@@]1(C)C(=O)[C@H](O)C3=C(C)[C@@H](OC(=O)[C@H](O)[C@@H](NC(=O)OC(C)(C)C)c4ccccc4)C[C@@](O)([C@@H](OC(=O)c4ccccc4)[C@H]21)C3(C)C [Docetaxel] | 42 | 10.5 | – | – | – | – | – | one mouse had to be euthanized | – | –
3 | Nc1ccn([C@@H]2O[C@H](CO)[C@@H](O)C2(F)F)c(=O)n1 [gemcitabine, Gemcitabine] | – | – | – | 8.8 | 65 | – | – | – | not tolerated | –
4 | CCc1c2c(nc3ccc(OC(=O)N4CCC(N5CCCCC5)CC4)cc13)-c1cc3c(c(=O)n1C2)COC(=O)[C@]3(O)CC [irinotecan] | – | – | 5.9 | – | – | 25 | – | – | – | well tolerated
